This is an account of results in ChEMBL document CHEMBL1201862, “PubChem BioAssay data set” (2004).

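Cultured in 96-well plates, cells were exposed to test compound for 48 hours across five concentrations. GI50 is the concentration that inhibits growth by half.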 Active and inactive are the calls of the source. Rule as the data show it: active = GI50 up to about 1.1 µM and inactive = higher. A value given as a limit tells only on which side of the number the result lay.

Among the test systems are T47D; MCF7; A498; NCI-H226; UACC-62; SK-OV-3; U-251; SF-295; CAKI-1; SNB-75; CCRF-CEM; UO-31; M14; SK-MEL-5; SK-MEL-2; SN12C; NCI/ADR-RES; OVCAR-4; HCT-116; MDA-MB-435.
Assay in all cases: growth of human tumour cells (NCI), 48 h

For the molecule `O=C(CC1(O)C(=O)Nc2c(Cl)ccc(Cl)c21)c1ccco1` (stereo not given), the GI50 in the assay on T47D is 35.6 µM (inactive); in the assay on MCF7, 14.9 µM (inactive); in the assay with A498, 30.4 µM (inactive); in the assay with NCI-H226, 19.7 µM (inactive); in the assay on UACC-62 it was 13.5 µM (inactive); in the assay with SK-OV-3 it was 31.5 µM (inactive). Further, the GI50 in the assay with U-251 is 22.7 µM (inactive); with SF-295 it was 20.1 µM (inactive); with CAKI-1, 26.1 µM (inactive); in the assay with SNB-75 it was 27 µM (inactive); in the assay with CCRF-CEM it was 5.09 µM (inactive); with UO-31 it was 35.8 µM (inactive). The GI50 in the assay with M14 was 14.5 µM (inactive); in the assay on SK-MEL-5, 17.8 µM (inactive); in the assay with SK-MEL-2, 26.1 µM (inactive); with SN12C, 17.3 µM (inactive); in the assay with NCI/ADR-RES, 23.7 µM (inactive); in the assay on OVCAR-4, 7.06 µM (inactive). Also, the GI50 with HCT-116 is 14 µM (inactive); in the assay on MDA-MB-435, 1.85 µM (inactive).

As for `CC[C@@H](/C=C\CCC(=O)C[C@H](O)CCC=C(C)C)O[Si](C(C)C)(C(C)C)C(C)C`, the GI50 in the assay on T47D was 55.5 µM (inactive); with MCF7, 79.4 µM (inactive); with A498, > 100 µM (inactive); in the assay with NCI-H226, > 100 µM (inactive); in the assay on UACC-62, > 100 µM (inactive); with SK-OV-3, > 100 µM (inactive). Besides, the GI50 in the assay with U-251 is > 100 µM (inactive); in the assay with SF-295, > 100 µM (inactive); with CAKI-1 it was > 100 µM (inactive); in the assay with SNB-75 it was > 100 µM (inactive); with CCRF-CEM it was 80.4 µM (inactive); in the assay with UO-31, > 100 µM (inactive). Further, the GI50 in the assay on M14 was > 100 µM (inactive); in the assay with SK-MEL-5, 69 µM (inactive); in the assay with SK-MEL-2 it was 42.9 µM (inactive); in the assay on SN12C it was > 100 µM (inactive); in the assay with NCI/ADR-RES, > 100 µM (inactive); in the assay with OVCAR-4, > 100 µM (inactive). The GI50 with HCT-116 and in the assay on MDA-MB-435 was > 100 µM (inactive) in each case.

As to `CC(NC(=O)C1(N)CCCC1)C(=O)O` (stereo not given), the GI50 in the assay on T47D, with MCF7, in the assay with A498, in the assay with NCI-H226, in the assay on UACC-62 and in the assay on SK-OV-3 was > 100 µM (inactive) in each case. For the same molecule, the GI50 in the assay on U-251, in the assay with SF-295, in the assay with CAKI-1, in the assay with SNB-75, in the assay with CCRF-CEM and in the assay with UO-31 was > 100 µM (inactive) in each case. In addition, the GI50 in the assay with M14, with SK-MEL-5, in the assay with SK-MEL-2, with SN12C, with NCI/ADR-RES and in the assay with OVCAR-4 was > 100 µM (inactive) in each case. The GI50 in the assay on HCT-116 and in the assay with MDA-MB-435 was > 100 µM (inactive) in each case.

Turning to `COc1cc(C2c3cc4c(cc3C3OC[C@@H]2C3CO)OCO4)cc(OC)c1OC` (stereo not given in full), the GI50 in the assay with T47D was > 100 µM (inactive); with MCF7, 35.2 µM (inactive); in the assay on A498 it was 42 µM (inactive); in the assay on NCI-H226 it was 20.2 µM (inactive); in the assay on SK-OV-3, 54.2 µM (inactive); in the assay with U-251, 34.7 µM (inactive). In addition, the GI50 in the assay on SF-295 was 28.8 µM (inactive); in the assay with CAKI-1, 78.7 µM (inactive); with SNB-75, 25.6 µM (inactive); in the assay on CCRF-CEM it was 23.4 µM (inactive); with UO-31 it was 45.4 µM (inactive); in the assay on M14 it was 31.3 µM (inactive). In addition, the GI50 in the assay on SK-MEL-5 was 11.5 µM (inactive); in the assay on SK-MEL-2 it was 40.2 µM (inactive); with NCI/ADR-RES, 20.1 µM (inactive); in the assay on OVCAR-4, 71.1 µM (inactive); in the assay with MDA-MB-435, 6.81 µM (inactive).

For the molecule `COc1cc(Cl)c(CC(=O)c2c[nH]c3ccccc23)cc1OC`, the GI50 with T47D is > 28.5 µM (inactive); in the assay on MCF7, > 100 µM (inactive); with A498 it was 12.1 µM (inactive); with NCI-H226, 12.6 µM (inactive); in the assay on UACC-62, > 100 µM (inactive); in the assay with SK-OV-3 it was 8.07 µM (inactive). For the same molecule, the GI50 in the assay on U-251 was 8.38 µM (inactive); in the assay with SF-295 it was 16.1 µM (inactive); in the assay on CAKI-1, > 36.1 µM (inactive); in the assay on SNB-75 it was 8.93 µM (inactive); with CCRF-CEM it was > 34.6 µM (inactive); with M14, > 100 µM (inactive). Moreover, the GI50 in the assay with SK-MEL-5 is > 100 µM (inactive); in the assay with SK-MEL-2, 16.7 µM (inactive); in the assay with SN12C it was 58.5 µM (inactive); with NCI/ADR-RES, > 81.7 µM (inactive); with OVCAR-4, > 100 µM (inactive); with HCT-116 it was 98.6 µM (inactive). In the assay with MDA-MB-435, the GI50 was > 100 µM (inactive).

For the molecule `COc1ccc(OCC(=N/NC(=O)c2ccncc2)/N=C/c2cccnc2)cc1`, the GI50 with T47D is > 100 µM (inactive); in the assay with MCF7 it was 73.1 µM (inactive); with A498, 65.3 µM (inactive); in the assay on NCI-H226, 61.1 µM (inactive); in the assay on UACC-62, 43.4 µM (inactive); in the assay with SK-OV-3 it was > 100 µM (inactive). Moreover, the GI50 in the assay on U-251 was > 100 µM (inactive); in the assay on SF-295 it was 84.7 µM (inactive); with CAKI-1 it was > 100 µM (inactive); with SNB-75, 24.2 µM (inactive); in the assay on CCRF-CEM, > 100 µM (inactive); in the assay with M14, 60.5 µM (inactive). The GI50 was > 100 µM (inactive) in the assay with SK-MEL-2; > 100 µM (inactive) in the assay on SN12C; > 100 µM (inactive) in the assay on NCI/ADR-RES; 96.6 µM (inactive) in the assay on OVCAR-4; > 100 µM (inactive) with HCT-116; 18.2 µM (inactive) in the assay on MDA-MB-435.

Turning to `CC(=N\N=C\c1ccccn1)/C(C)=N/N=C/c1ccccn1`, the GI50 is > 100 µM (inactive) in the assay on T47D; 89.7 µM (inactive) with MCF7; > 100 µM (inactive) with A498; > 100 µM (inactive) in the assay on NCI-H226; > 100 µM (inactive) in the assay with SK-OV-3; > 100 µM (inactive) in the assay on U-251. In addition, the GI50 with SF-295, with CAKI-1, with SNB-75, in the assay with CCRF-CEM, in the assay with UO-31 and with M14 was > 100 µM (inactive) each time. For the same molecule, the GI50 with SK-MEL-5 is 98.4 µM (inactive); in the assay on SK-MEL-2, > 100 µM (inactive); in the assay on SN12C it was > 100 µM (inactive); in the assay with NCI/ADR-RES it was > 100 µM (inactive); in the assay with OVCAR-4 it was 94.4 µM (inactive); with HCT-116, > 100 µM (inactive). Also, the GI50 in the assay with MDA-MB-435 is 42.9 µM (inactive).

With `Cc1cccc(/C=N/NC(=S)N2CCCCCC2)n1`, the GI50 in the assay with T47D was < 0.01 µM (active); in the assay on MCF7, < 0.01 µM (active); in the assay with A498, 0.449 µM (active); in the assay with NCI-H226, 1.33 µM (inactive); with UACC-62, 0.163 µM (active); in the assay on SK-OV-3 it was 0.556 µM (active). The GI50 was < 0.0417 µM (active) with U-251; 0.331 µM (active) in the assay with SF-295; 0.369 µM (active) in the assay with CAKI-1; 0.135 µM (active) in the assay on SNB-75; < 0.01 µM (active) with CCRF-CEM; 0.103 µM (active) with UO-31. Moreover, the GI50 was < 0.0271 µM (active) in the assay with M14; 0.0661 µM (active) with SK-MEL-5; 0.546 µM (active) in the assay with SK-MEL-2; 0.101 µM (active) with SN12C; < 0.01 µM (active) in the assay on NCI/ADR-RES; < 0.01 µM (active) with HCT-116. In the assay on MDA-MB-435, the GI50 was 1.3 µM (inactive).

Take `CC(CSc1nc2c(c(=N)n1-c1ccccc1)c(=S)n(-c1ccccc1)c(=S)n2-c1ccccc1)CN(C)C` (stereo not given): the GI50 is 2.67 µM (inactive) with T47D; 0.313 µM (active) in the assay with MCF7; 2.8 µM (inactive) in the assay on A498; 6.38 µM (inactive) in the assay with NCI-H226; 1.7 µM (inactive) in the assay with UACC-62; 4.06 µM (inactive) in the assay on SK-OV-3. The GI50 in the assay on U-251 is 1.82 µM (inactive); in the assay with SF-295 it was 6.22 µM (inactive); in the assay with CAKI-1 it was 1.61 µM (inactive); in the assay on SNB-75, 1.78 µM (inactive); in the assay on CCRF-CEM, 0.289 µM (active); with M14, 1.86 µM (inactive). Further, the GI50 is 2.05 µM (inactive) in the assay with SK-MEL-5; 2.45 µM (inactive) in the assay with SK-MEL-2; 1.81 µM (inactive) with SN12C; 3.08 µM (inactive) in the assay on NCI/ADR-RES; 1.76 µM (inactive) in the assay on OVCAR-4; 1.67 µM (inactive) with HCT-116. For the same molecule, the GI50 with MDA-MB-435 was 1.72 µM (inactive).

With `COc1ccc(-c2coc3cc(O)ccc3c2=O)cc1` [FORMONONETIN], the GI50 in the assay with T47D, in the assay with MCF7, with A498, in the assay on NCI-H226, with UACC-62 and in the assay on SK-OV-3 was > 100 µM (inactive) throughout. Further, the GI50 was > 100 µM (inactive) with U-251; > 100 µM (inactive) in the assay with SF-295; > 100 µM (inactive) with CAKI-1; > 100 µM (inactive) in the assay on SNB-75; > 100 µM (inactive) in the assay on CCRF-CEM; 90.6 µM (inactive) in the assay on UO-31. The GI50 with M14, in the assay on SK-MEL-5, in the assay with SK-MEL-2, with SN12C, in the assay with NCI/ADR-RES and in the assay with HCT-116 was > 100 µM (inactive) in each case. Also, the GI50 in the assay with MDA-MB-435 is > 100 µM (inactive).
